Measurements as given in patent US20260317269A1, “Oxamate Derivatives and Prodrugs to Prevent CaOx Stone Formation” (Rutgers, The State University of New Jersey, priority 2023, published 2026).

Experiment: CaOx crystallization inhibition assay, remaining free oxalate in solution measured with EnzyChrom oxalate assay kit (Assay B)
Type: biochemical
Conditions: for pEC50 / Ratio: from EC50 in the CaOx crystallization inhibition assay; for pEC50: HEPES pH 6.8, r.t., footnote c not given; for pEC50 / EC50: 72 h; for EC50: inhibition of CaOx crystallization, 10 mM HEPES buffer, pH 6.8, 150 mM NaCl, supersaturated CaOx, r.t., remaining oxalate at OD 595 nm; for Ratio: ratio to citrate (citrate = 1)
Text: Calcium oxalate (CaOx) crystallization inhibition assays in HEPES buffer, pH 6.8 include Assay A and Assay B. Assay A: Fluorescence-based assay using Quin-2 to measure the concentration of free calcium in solution (Ex 340 nm/Em 495 nm) (FIG. 1). An example assay protocol is shown below.
Assay B: Spectrophotometric assay using EnzyChrom™ oxalate assay kit from Bioassay Systems (EOXA-100) to measure the concentration of free oxalate in solution at OD 595 nm.
For CaOx crystallization inhibition assay, equal volumes of 2 mM of CaCl2) was combined with […] of Na2Ox to generate […] supersaturated solutions of CaOx in 10 mM HEPES buffer, pH 6.8 containing 150 mM NaCl. The higher concentration of Ca^++ utilized in this assay was designed to mimic the typical calcium levels found in human urine. Following incubation with varying concentrations of inhibitors at r.t. for 72 h and subsequent centrifugation, the EnzyChrom™ oxalate assay kit (EOXA-100, BioAssay Systems) was employed to measure spectrophotometrically the remaining oxalate concentration in solution at 595 nm. This assay determined the EC50 for each inhibitor. This assay was used to determine the activity of about 50 oxamate derivatives synthesized. Separately, dose response curves can be obtained for calcium concentrations and inhibitors concentrations with supersaturated solution: 250 μM CaCl2+250 μM Na2C2O4 in 10 mM HEPES, pH 6.8+150 mM NaCl; Calcium concentration in supernatent after centrifuge was measured using Quin2 via a fluorescence assay (Ex 340 nm/Em 495 nm).
Table 1 lists the EC50's obtained using this assay for various oxamate derivatives, along with other structure features such as linker length and number of OMA units for SAR analysis.

With `O=C(O)C(=O)NCCNC(=O)C(=O)O` [Compound 11b] as the compound, how does the pEC50 read?
Its pEC50 is 3.89.

And the EC50?
Its EC50 is 127 µM.

What about the Ratio of the same compound?
The Ratio was 5.

With `O=C(O)C(=O)NCCCC[C@H](NC(=O)C(=O)O)C(=O)NCCCCCCNC(=O)[C@H](CCCCNC(=O)C(=O)O)NC(=O)C(=O)O` [Compound 19f, N,N′-(1,6-hexylene)bis(L-Lysinamide) N^α, N^α′,N^ε,N^ε′-tetraoxalate] as the compound, how does the pEC50 read?
The pEC50 was 6.03.

What about the EC50 of the same compound?
Its EC50 is 0.925 µM.

What about the Ratio of the same compound?
The Ratio was 719.

What does the source list for `O=C(O)CC(O)(CC(=O)O)C(=O)O` [Citrate, reference compound]?
pEC50: 3.18; EC50: 665 µM; Ratio: 1

What does the source list for `O=C(O)C(=O)NCCCC[C@H](NC(=O)C(=O)O)C(=O)NCCCCCNC(=O)[C@H](CCCCNC(=O)C(=O)O)NC(=O)C(=O)O` [Compound 19e, N,N′-(1,5-pentylene)bis(L-Lysinamide) N^α, N^α′,N^ε,N^ε′-tetraoxalate]?
pEC50: 5.44; EC50: 3.6 µM; Ratio: 185

What does the source list for `O=C(O)C(=O)NCCCC[C@H](NC(=O)C(=O)O)C(=O)O` [Compound 9, L-Lysine N^α,N^ε-dioxalate]?
pEC50: 4.20; EC50: 63.8 µM; Ratio: 10
